#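 Growth conditions: 96-well plates. Treatment: test compound, 48 hours, 5 concentrations. Analysis: linear interpolation between bracketing concentrations; unreached endpoints set to highest concentration. The concentration for full growth arrest is given as TGI.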
# Tested on: HCT-116 colon
# Test: NCI-60 cell line screen, 48 h
row,SMILES,TGI [µM]
1,Cn1ccc(C(=O)NCCOCCNC(=O)c2ccn(C)c(=O)c2O)c(O)c1=O,> 100
2,CC1=C(Br)C(Br)=C(C)S1=O,18.2
3,N#CSc1nc[nH]c1C(N)=O,> 100
4,COc1ccnc2c1C(=O)c1nc3ccccc3c3ccnc-2c13,1.03
5,CC(=O)N(C(=O)CC(=O)N/N=C\c1ccc(Br)c(N(CCC#N)CCC#N)c1)c1ccc(Cl)cc1,> 100
6,C[C@H]1[C@H](C)CC[C@]2(C)CC[C@]3(C)C(=C[C@@H](O)[C@@H]4[C@@]5(C)[C@H](O)[C@@H](O)[C@H](O)C(C)(C)[C@@H]5CC[C@]43C)[C@H]12,> 100
7,C=CCN1C[C@H](C)N([C@H](c2ccc(C(=O)N(CC)CCO)cc2)c2cccc(OC)c2)C[C@H]1C,> 100
8,CCC1c2[nH]c3ccccc3c2C[C@H]2C(=O)NC(COC(C)(C)C)C(=O)N12 (some centres not stated),> 100
9,CC12CCC(C(=O)OC1=O)C2(C)C (configuration not stated),> 100
10,CN1CCOC1(C)CO (configuration not stated),> 100
11,CC1=CC(C2/C(=N/O)C=C(C)CC2(C)C)C(O)C(C)(C)C1 (configuration not stated),29.3
12,c1cc(-c2ncc(-c3ccc4c(c3)CCCO4)o2)ccn1,39.3
13,COC(=O)C1=C(C)NC(C)=C(C(=O)OC)C1c1ccc(/[N+]([O-])=C/c2ccccc2)cc1,30
14,CC(=O)OC1CC2c3cccc4c3C(CC2N(C)C1=O)CN4C(=O)c1ccccc1 (configuration not stated),32.8
15,COc1ccc2c3c1O[C@H]1C(O)CCC4(O)[C@@H](C2)NCC[C@]314 (some centres not stated),> 100
16,Cc1cc(C)cc(C(=N)c2ccccc2Cc2cccc3ccccc23)c1,23.2
17,CCCCCC(C[N+]1(C)CCOCC1)C(=O)/C=C/c1ccccc1 (configuration not stated),11.7
18,CC1(C#N)CC(C)(C)C(/C=C2/CC(C)(C)C(/C=C3/OC(=N)CC3(C)C)=N2)=N1 (configuration not stated),> 100
19,COc1ccc(C[N+]23C(CC[C@H]2c2ccccc2)CC[C@H]3c2ccccc2)cc1 (some centres not stated),> 100
20,CCOC(=O)CC1c2ccc(O)cc2OC(=O)C1c1ccc([N+](=O)[O-])cc1 (configuration not stated),82.3
21,CCOC(=O)C1(C(=O)OCC)CN(CC)CN(c2ccccc2)C1,> 100

# Tested on: HCT-15 colon
# Test: NCI-60 cell line screen, 48 h
row,SMILES,TGI [µM]
1,CSC1=C(SC)SC(=C2SC3=C(SC(=C4SCCS4)S3)S2)S1,> 100
2,CCN(CC)c1ccc2cc(-c3nnc(-c4ccccc4)o3)c(=O)oc2c1,> 100
3,CC1=C(C(N)=O)C(c2ccncc2)C(C#N)=C2SCC(=O)N12 (configuration not stated),> 100
4,CC(=O)c1sc2c(c1OC(=O)c1cccs1)c(=O)n(-c1ccccc1)c(=S)n2-c1ccccc1,36.5
5,CN(C)C(=O)NCCN1CCCCCc2ccccc21,> 100
6,CC(=O)Oc1ccccc1-c1cc2ccccc2oc1=O,> 100
7,Clc1ccc(Cl)c(Nc2ccnc(SCc3ccccc3)n2)c1,> 100
8,CCOC(=O)C1=C(Nc2cccc(OC)c2)OCC1=O,> 100
9,O=C(NCCCNC(=O)c1ccc2c(O)c(O)ccc2c1)c1ccc2c(O)c(O)ccc2c1,> 72.5
10,O=C1/C(=C\c2ccc([N+](=O)[O-])o2)SC2N=C(COc3ccc(Cl)cc3)NN12 (configuration not stated),4.77
11,CO[C@H]1[C@@H](O)[C@@H](C)O[C@@H](O[C@H]2CC[C@@]3(C)[C@H](CC[C@@H]4[C@@H]3CC[C@]3(C)[C@@H](C5=CC(=O)OC5)[C@@H](OC(C)=O)C[C@]43O)C2)[C@@H]1O,0.292
12,O=C(C(=O)N1CCc2ccccc21)c1c[nH]c2ccccc12,> 10
13,Cn1ccc(C(=O)NCCOCCNC(=O)c2ccn(C)c(=O)c2O)c(O)c1=O,> 100
14,CC1=C(Br)C(Br)=C(C)S1=O,> 100
15,N#CSc1nc[nH]c1C(N)=O,> 100
16,COc1ccnc2c1C(=O)c1nc3ccccc3c3ccnc-2c13,0.145
17,CC(=O)N(C(=O)CC(=O)N/N=C\c1ccc(Br)c(N(CCC#N)CCC#N)c1)c1ccc(Cl)cc1,> 100

row,SMILES,TGI [µM]
1,C[C@H]1[C@H](C)CC[C@]2(C)CC[C@]3(C)C(=C[C@@H](O)[C@@H]4[C@@]5(C)[C@H](O)[C@@H](O)[C@H](O)C(C)(C)[C@@H]5CC[C@]43C)[C@H]12,> 100
2,C=CCN1C[C@H](C)N([C@H](c2ccc(C(=O)N(CC)CCO)cc2)c2cccc(OC)c2)C[C@H]1C,> 100
3,CCC1c2[nH]c3ccccc3c2C[C@H]2C(=O)NC(COC(C)(C)C)C(=O)N12 (some centres not stated),> 100
4,CCOC(=O)CC1CCN(C(=O)c2ccccc2)C2Cc3c([nH]c4ccccc34)C12C[N+](=O)[O-] (configuration not stated),> 100
5,CC12CCC(C(=O)OC1=O)C2(C)C (configuration not stated),> 100
6,CN1CCOC1(C)CO (configuration not stated),> 100
7,CC1=CC(C2/C(=N/O)C=C(C)CC2(C)C)C(O)C(C)(C)C1 (configuration not stated),33.6
8,c1cc(-c2ncc(-c3ccc4c(c3)CCCO4)o2)ccn1,69.7
9,COC(=O)C1=C(C)NC(C)=C(C(=O)OC)C1c1ccc(/[N+]([O-])=C/c2ccccc2)cc1,> 100
10,CC(=O)OC1CC2c3cccc4c3C(CC2N(C)C1=O)CN4C(=O)c1ccccc1 (configuration not stated),46.2
11,COc1ccc2c3c1O[C@H]1C(O)CCC4(O)[C@@H](C2)NCC[C@]314 (some centres not stated),> 100
12,Cc1cc(C)cc(C(=N)c2ccccc2Cc2cccc3ccccc23)c1,32.2
13,CCCCCC(C[N+]1(C)CCOCC1)C(=O)/C=C/c1ccccc1 (configuration not stated),25
14,CC1(C#N)CC(C)(C)C(/C=C2/CC(C)(C)C(/C=C3/OC(=N)CC3(C)C)=N2)=N1 (configuration not stated),44.1
15,CCOC(=O)CC1c2ccc(O)cc2OC(=O)C1c1ccc([N+](=O)[O-])cc1 (configuration not stated),> 100
16,CCOC(=O)C1(C(=O)OCC)CN(CC)CN(c2ccccc2)C1,39

# Tested on: HOP-62 NSCLC
# Test: NCI-60 cell line screen, 48 h
row,SMILES,TGI [µM]
1,CSC1=C(SC)SC(=C2SC3=C(SC(=C4SCCS4)S3)S2)S1,> 100
2,CCN(CC)c1ccc2cc(-c3nnc(-c4ccccc4)o3)c(=O)oc2c1,> 74.1
3,CC1=C(C(N)=O)C(c2ccncc2)C(C#N)=C2SCC(=O)N12 (configuration not stated),> 100
4,CC(=O)c1sc2c(c1OC(=O)c1cccs1)c(=O)n(-c1ccccc1)c(=S)n2-c1ccccc1,33.9
5,C[C@]12CCC(=O)C=C1CC[C@@H]1C2CC[C@]2(C)c3nn(-c4ccc(F)cc4)nc3CC12 (some centres not stated),> 100
6,CN(C)C(=O)NCCN1CCCCCc2ccccc21,> 100
7,CN(Nc1cc(=O)[nH]c(=O)[nH]1)c1ccccc1,> 100
8,CC(=O)Oc1ccccc1-c1cc2ccccc2oc1=O,> 100
9,Clc1ccc(Cl)c(Nc2ccnc(SCc3ccccc3)n2)c1,> 100
10,CCOC(=O)C1=C(Nc2cccc(OC)c2)OCC1=O,> 100
11,O=C(NCCCNC(=O)c1ccc2c(O)c(O)ccc2c1)c1ccc2c(O)c(O)ccc2c1,48.1
12,O=C1/C(=C\c2ccc([N+](=O)[O-])o2)SC2N=C(COc3ccc(Cl)cc3)NN12 (configuration not stated),41.8
13,CO[C@H]1[C@@H](O)[C@@H](C)O[C@@H](O[C@H]2CC[C@@]3(C)[C@H](CC[C@@H]4[C@@H]3CC[C@]3(C)[C@@H](C5=CC(=O)OC5)[C@@H](OC(C)=O)C[C@]43O)C2)[C@@H]1O,0.0878
14,O=C(C(=O)N1CCc2ccccc21)c1c[nH]c2ccccc12,> 10
15,CC1=C(Br)C(Br)=C(C)S1=O,42.1
16,N#CSc1nc[nH]c1C(N)=O,> 100
17,COc1ccnc2c1C(=O)c1nc3ccccc3c3ccnc-2c13,5.34
18,CC(=O)N(C(=O)CC(=O)N/N=C\c1ccc(Br)c(N(CCC#N)CCC#N)c1)c1ccc(Cl)cc1,> 100

row,SMILES,TGI [µM]
1,C[C@H]1[C@H](C)CC[C@]2(C)CC[C@]3(C)C(=C[C@@H](O)[C@@H]4[C@@]5(C)[C@H](O)[C@@H](O)[C@H](O)C(C)(C)[C@@H]5CC[C@]43C)[C@H]12,> 100
2,C=CCN1C[C@H](C)N([C@H](c2ccc(C(=O)N(CC)CCO)cc2)c2cccc(OC)c2)C[C@H]1C,> 100
3,CCC1c2[nH]c3ccccc3c2C[C@H]2C(=O)NC(COC(C)(C)C)C(=O)N12 (some centres not stated),> 100
4,CCOC(=O)CC1CCN(C(=O)c2ccccc2)C2Cc3c([nH]c4ccccc34)C12C[N+](=O)[O-] (configuration not stated),> 100
5,CC12CCC(C(=O)OC1=O)C2(C)C (configuration not stated),> 100
6,CN1CCOC1(C)CO (configuration not stated),> 100
7,CC1=CC(C2/C(=N/O)C=C(C)CC2(C)C)C(O)C(C)(C)C1 (configuration not stated),29.5
8,c1cc(-c2ncc(-c3ccc4c(c3)CCCO4)o2)ccn1,> 100
9,COC(=O)C1=C(C)NC(C)=C(C(=O)OC)C1c1ccc(/[N+]([O-])=C/c2ccccc2)cc1,> 100
10,CC(=O)OC1CC2c3cccc4c3C(CC2N(C)C1=O)CN4C(=O)c1ccccc1 (configuration not stated),77.4
11,COc1ccc2c3c1O[C@H]1C(O)CCC4(O)[C@@H](C2)NCC[C@]314 (some centres not stated),> 100
12,Cc1cc(C)cc(C(=N)c2ccccc2Cc2cccc3ccccc23)c1,32.2
13,CCCCCC(C[N+]1(C)CCOCC1)C(=O)/C=C/c1ccccc1 (configuration not stated),69.2
14,CC1(C#N)CC(C)(C)C(/C=C2/CC(C)(C)C(/C=C3/OC(=N)CC3(C)C)=N2)=N1 (configuration not stated),56.6
15,COc1ccc(C[N+]23C(CC[C@H]2c2ccccc2)CC[C@H]3c2ccccc2)cc1 (some centres not stated),67.3
16,CCOC(=O)CC1c2ccc(O)cc2OC(=O)C1c1ccc([N+](=O)[O-])cc1 (configuration not stated),68.2
17,CCOC(=O)C1(C(=O)OCC)CN(CC)CN(c2ccccc2)C1,40.4

# Tested on: NCI-H460 lung
# Test: NCI-60 cell line screen, 48 h
row,SMILES,TGI [µM]
1,CSC1=C(SC)SC(=C2SC3=C(SC(=C4SCCS4)S3)S2)S1,> 100
2,CCN(CC)c1ccc2cc(-c3nnc(-c4ccccc4)o3)c(=O)oc2c1,> 51.3
3,CC1=C(C(N)=O)C(c2ccncc2)C(C#N)=C2SCC(=O)N12 (configuration not stated),> 100
4,CC(=O)c1sc2c(c1OC(=O)c1cccs1)c(=O)n(-c1ccccc1)c(=S)n2-c1ccccc1,25.3
5,C[C@]12CCC(=O)C=C1CC[C@@H]1C2CC[C@]2(C)c3nn(-c4ccc(F)cc4)nc3CC12 (some centres not stated),> 100
6,CN(C)C(=O)NCCN1CCCCCc2ccccc21,> 100
7,CN(Nc1cc(=O)[nH]c(=O)[nH]1)c1ccccc1,> 100
8,CC(=O)Oc1ccccc1-c1cc2ccccc2oc1=O,> 100
9,Clc1ccc(Cl)c(Nc2ccnc(SCc3ccccc3)n2)c1,> 100
10,CCOC(=O)C1=C(Nc2cccc(OC)c2)OCC1=O,> 100
11,O=C1/C(=C\c2ccc([N+](=O)[O-])o2)SC2N=C(COc3ccc(Cl)cc3)NN12 (configuration not stated),39.5
12,CO[C@H]1[C@@H](O)[C@@H](C)O[C@@H](O[C@H]2CC[C@@]3(C)[C@H](CC[C@@H]4[C@@H]3CC[C@]3(C)[C@@H](C5=CC(=O)OC5)[C@@H](OC(C)=O)C[C@]43O)C2)[C@@H]1O,0.0617
13,O=C(C(=O)N1CCc2ccccc21)c1c[nH]c2ccccc12,> 10
14,Cn1ccc(C(=O)NCCOCCNC(=O)c2ccn(C)c(=O)c2O)c(O)c1=O,> 100
15,CC1=C(Br)C(Br)=C(C)S1=O,34.7
16,N#CSc1nc[nH]c1C(N)=O,> 100
17,COc1ccnc2c1C(=O)c1nc3ccccc3c3ccnc-2c13,0.139
18,CC(=O)N(C(=O)CC(=O)N/N=C\c1ccc(Br)c(N(CCC#N)CCC#N)c1)c1ccc(Cl)cc1,> 100
